{"source": "patent US12447171B2", "about": "(CELGENE QUANTICEL RESEARCH, INC., priority 2019, dated 2025)", "key": {"BaF-FLT3-ITD": {"tested_on": "BaF-FLT3-ITD", "experiment": "Cell viability assay (Cell Titer-Glo), BaF3 cells expressing FLT3", "type": "cell-based", "conditions": "Mus musculus"}, "MOLM-13 xenograft model": {"tested_on": "MOLM-13 xenograft model", "experiment": "Disseminated MOLM-13 xenograft survival study", "type": "in vivo, mice", "conditions": "for Median survival: MOLM-13, NOD/SCID mice, vehicle=19 days; for survival compared to vehicle alone: MOLM-13", "description": "LEED models oral administration of AZA, while HELD models intravenous or subcutaneous administration of AZA.\nThe animals were fed ad libitum water (reverse osmosis, 1 ppm Cl), and NIH 31 Modified and Irradiated Lab Diet® consisting of 18.0% crude protein, 5.0% crude fat, and 5.0% crude fiber. The mice were housed on irradiated Enrich-o'cobs™ Laboratory Animal Bedding in static microisolators on a 12-hour light cycle at 20-22° C. (68-72° F.) and 40-60% humidity.\nOn each day of dosing, an appropriate amount of gilteritinib was dissolved in 0.5% methylcellulose in DI water to yield a dosing solution at 0.4 mg/mL. Each week, an appropriate amount of venetoclax was dissolved in 10% ethanol:30% PEG400:60% phosal 50 propylene glycol to yield a dosing solution at 10 mg/mL. […] Each test mouse received 5×10^6 MOLM-13 cells or 10^7 MV4-11 cells (0.2 mL cell suspension) by tail vein injection. Dosing was initiated three days after tumor cell inoculation, which was designated as Day 1 of the study. NOD/SCID mice (n=9-12/group) were randomized according to body weight and dosed. […] Vehicle was administered both IP and PO. The dosing volume for all treatments was 10 mL/kg, scaled to the weight of each individual animal.\nAnimals were monitored individually for an endpoint of moribundity due to progression of the leukemia. Full hind limb paralysis, severe ocular proptosis, or moribundity was considered sufficient for euthanasia due to tumor progression. Moribund animals were defined as sick animals unable to reach food and water. These deaths were classified as death on survival study. The time to endpoint (TTE), in days, was recorded for each mouse that died of its disease or was euthanized due to extensive tumor progression. […] An animal classified as having died from treatment-related (TR) causes was assigned a TTE value equal to the day of death. An animal classified as having died from non-treatment-related (NTR) causes, or used for sampling before endpoint, was excluded from TTE calculations and all further analyses. The median TTE value was calculated for each group. The median TTE of treated mice was expressed as a percentage of the median TTE of the control mice (% T/C), and the increase in life span (ILS) was calculated as: ILS=% T/C−100%, where T=median TTE treated, and C=median TTE control. Thus, if T=C, ILS=0%.\nAnimals were weighed daily on Days 1-5, then twice per week until the completion of the study. […] Individual body weight loss was monitored as per protocol and any animal that exceeded the limits for acceptable body weight loss was euthanized. Group mean body weight loss also was monitored as per protocol. Dosing was suspended in any group that exceeded the limits for acceptable mean body weight loss. If mean body weight recovered, then dosing may be resumed in that group, but at a lower dosage or less frequent dosing schedule. Acceptable toxicity for the maximum tolerated dose was defined as a group mean body-weight loss of less than 20% during the study and not more than one TR death among ten treated animals. […] A death was classified as NTR if there was no evidence that death was related to treatment side effects or tumor progression. Non-treatment-related deaths may be further characterized based on cause of death. A death may be classified as NTRa if it resulted from an accident or human error. A death may be classified as NTRu if the cause of death is unknown and there is no available evidence of death related to treatment side effects, metastasis, accident or human error, although death due to these etiologies cannot be excluded. Survival was analyzed by the Kaplan-Meier method, based on TTE values. The logrank (Mantel-Cox) and Gehan-Breslow-Wilcoxon tests determined the significance of the difference between the overall survival experiences (survival curves) of two groups, based on TTE values.\nThese experiments were repeated with a second FLT3-ITD cell line, MOLM-13."}, "BaF-FLT3(D835Y)": {"tested_on": "BaF-FLT3(D835Y)", "experiment": "Cell viability assay (Cell Titer-Glo), BaF3 cells expressing FLT3", "type": "cell-based", "conditions": "Mus musculus"}, "MV4-11 cells": {"tested_on": "MV4-11 cells", "experiment": "RNASeq analysis of MV4-11 cells", "type": "cell-based", "conditions": "MV4-11, 1 μM 5-azacytidine", "description": "After treatment, cells were recovered, washed once in PBS, and flash frozen as cell pellets. Cell pellets were sent to Canopy Biosciences for RNA extraction and library preparation and sequencing. RNA was extracted using the Qiagen RNeasy Mini Kit according to manufacturer's instructions. A modified protocol was used to preserve miRNA species. Total RNA Seq libraries were prepared using 200 ng of total RNA and the NEBNext Ultra II Directional Library prep kit. rRNA depletion was performed using an RNase-H based method (New England Biolabs, Ipswich, MA). MCL1 RNA levels in other cell lines were quantified by RNASeq using standard methods.\nLibraries were multiplexed and sequenced using Illumina HiSeq. All gene counts were then imported into the R/Bioconductor package EdgeR and TMM normalization size factors were calculated to adjust for samples for differences in library size. Ribosomal genes and genes not expressed in the smallest group size minus one samples greater than one count-per-million were excluded from further analysis. Differential expression analysis was then performed to analyze for differences between conditions and the results were filtered for only those genes with Benjamini-Hochberg false-discovery rate adjusted p-values less than or equal to 0.05. Global perturbations in known Gene Ontology (GO) terms and KEGG pathways were detected using the R/Bioconductor package GAGE to test for changes in expression of the reported log 2 fold-changes reported by Limma in each term versus the background log 2 fold-changes of all genes found outside the respective term. The R/Bioconductor package heatmap and Pathview was used to display heatmaps or annotated KEGG graphs across groups of samples for each GO term or KEGG pathway (respectively) with a Benjamini-Hochberg false-discovery rate adjusted p-value less than or equal to 0.05. To find differentially expressed genes, the raw counts were variance stabilized with the R/Bioconductor package DESeq2."}}, "data": [{"smiles": "Nc1ncn([C@@H]2O[C@H](CO)[C@@H](O)[C@H]2O)c(=O)n1", "note": "[5-azacytidine, 4-amino-1-B-D-ribofuranosyl-1,3,5-triazin-2(1H)-one]", "values": [{"measurement": "EC50", "setting": "BaF-FLT3-ITD", "value": 598, "unit": "nM"}, {"measurement": "Median survival", "setting": "MOLM-13 xenograft model; HELD 5-azacytidine 3 mg/kg IP qd×5, alone or with midostaurin 100, gilteritinib 4 or venetoclax 100 mg/kg PO qd×21", "value": 32, "unit": "days"}, {"measurement": "Median survival", "setting": "MOLM-13 xenograft model; LEED 5-azacytidine 1 mg/kg IP qd×15, alone or with midostaurin 100, gilteritinib 4 or venetoclax 100 mg/kg PO qd×21", "value": 36, "unit": "days"}, {"measurement": "survival compared to vehicle alone", "setting": "MOLM-13 xenograft model; HELD 5-azacytidine 3 mg/kg IP qd×5, alone or in combination", "value": "statistically significantly increases in survival"}, {"measurement": "survival compared to vehicle alone", "setting": "MOLM-13 xenograft model; LEED 5-azacytidine 1 mg/kg IP qd×15, alone or in combination", "value": "statistically significantly increases in survival"}, {"measurement": "EC50", "setting": "BaF-FLT3(D835Y)", "value": 456, "unit": "nM"}, {"measurement": "Mean logFC, Kegg pathway Antigen processing and presentation", "setting": "MV4-11 cells; 24 h", "value": "−3.39"}, {"measurement": "Mean logFC, Kegg pathway Biosynthesis of unsaturated fatty acids", "setting": "MV4-11 cells; 24 h", "value": "−3.26"}, {"measurement": "Mean logFC, Kegg pathway Carbon metabolism", "setting": "MV4-11 cells; 24 h", "value": "−3.35"}, {"measurement": "Mean logFC, Kegg pathway Cardiac muscle contraction", "setting": "MV4-11 cells; 24 h", "value": "−2.61"}, {"measurement": "Mean logFC, Kegg pathway Cell cycle", "setting": "MV4-11 cells; 24 h", "value": "−5.75"}, {"measurement": "Mean logFC, Kegg pathway Cellular senescence", "setting": "MV4-11 cells; 24 h", "value": "−2.69"}, {"measurement": "Mean logFC, Kegg pathway DNA replication", "setting": "MV4-11 cells; 24 h", "value": "−4.45"}, {"measurement": "Mean logFC, Kegg pathway Fatty acid elongation", "setting": "MV4-11 cells; 24 h", "value": "−2.87"}, {"measurement": "Mean logFC, Kegg pathway Fatty acid metabolism", "setting": "MV4-11 cells; 24 h", "value": "−3.43"}, {"measurement": "Mean logFC, Kegg pathway Lysasome", "setting": "MV4-11 cells; 24 h", "value": "−2.82"}, {"measurement": "Mean logFC, Kegg pathway Metabolic pathways", "setting": "MV4-11 cells; 24 h", "value": "−5.79"}, {"measurement": "Mean logFC, Kegg pathway Mismatch repair", "setting": "MV4-11 cells; 24 h", "value": "−2.98"}, {"measurement": "Mean logFC, Kegg pathway Necroptosis", "setting": "MV4-11 cells; 24 h", "value": "−3.78"}, {"measurement": "Mean logFC, Kegg pathway Oxidative phosphorylation", "setting": "MV4-11 cells; 24 h", "value": "−7.32"}, {"measurement": "Mean logFC, Kegg pathway Phagosome", "setting": "MV4-11 cells; 24 h", "value": "−4.13"}, {"measurement": "Mean logFC, Kegg pathway Proteasome", "setting": "MV4-11 cells; 24 h", "value": "−4.41"}, {"measurement": "Mean logFC, Kegg pathway Protein export", "setting": "MV4-11 cells; 24 h", "value": "−3.19"}, {"measurement": "Mean logFC, Kegg pathway Protein processing in endoplasmic reticulation", "setting": "MV4-11 cells; 24 h", "value": "−4.96"}, {"measurement": "Mean logFC, Kegg pathway RNA transport", "setting": "MV4-11 cells; 24 h", "value": "−3.08"}, {"measurement": "Mean logFC, Kegg pathway Regulation of actin cytoskeleton", "setting": "MV4-11 cells; 24 h", "value": "−2.46"}, {"measurement": "Mean logFC, Kegg pathway Ribosome", "setting": "MV4-11 cells; 24 h", "value": "−10.50"}, {"measurement": "Mean logFC, Kegg pathway Spliceasome", "setting": "MV4-11 cells; 24 h", "value": "−4.10"}, {"measurement": "Mean logFC, Kegg pathway Taste transduction", "setting": "MV4-11 cells; 24 h", "value": "−2.44"}, {"measurement": "Mean logFC, Kegg pathway Terpenoid backbone biosynthesis", "setting": "MV4-11 cells; 24 h", "value": "−2.48"}, {"measurement": "Mean logFC, Kegg pathway p53 signaling pathway", "setting": "MV4-11 cells; 24 h", "value": "−2.42"}, {"measurement": "differentially expressed genes", "setting": "MV4-11 cells; 24 hours", "value": 133}, {"measurement": "KEGG pathways regulated", "setting": "MV4-11 cells; 48 hours", "value": "No significant differences"}, {"measurement": "differentially expressed genes", "setting": "MV4-11 cells; 48 hours", "value": 226}]}]}
